Read-outs that look alike come from different tables or passages of the source.
Key:
HT-29 cells = test: MTT assay, HT-29; type: cell-based; conditions: Homo sapiens
Description: (§1) The MTT assay, also known as the 3-(4,5-dimethylthiazol-2-yl)-2,5-diphenyltetrazolium bromide assay, is a colorimetric assay used in biological and biomedical research to determine cell viability and proliferation. The MTT assay works on the assumption that live cells with active metabolism convert MTT into formazan crystals. These crystals are insoluble; however, they can be dissolved in an organic solvent such as DMSO to produce a colorful solution. The color intensity is proportional to the number of viable cells present in the culture.
(§2) BxPC-3, HT-29, and WI-38 cells were seeded on 96-well plates at a density of approximately 8–10 × 10^3 cells per 100 µL medium/well. Cells were allowed to grow for 24 h in controlled conditions (37 °C; 5% CO2). […] The experimental design included nontreated controls and blanks (wells without cells). Following 24 or 72 h of culture with the investigated compounds, 20 μL of MTT tetrazolium salt (5 mg/mL in PBS) was added to each well, and the plates were incubated for 3 h in a humidified environment (37 °C; 5% CO2). The solutions were withdrawn after incubation, and 100 μL of DMSO was added to dissolve the formazan complexes. Afterward, a spectrophotometer (microplate reader Power Wave XS BioTek Instruments, Inc., Winooski, VT, USA) reading at 570 nm was conducted. The experiments were carried out in duplicates.
(§3) GraphPad Prism 7 software was used to calculate the concentration of an MMZ compound reflecting a 50% growth inhibition (IC50). IC50 is defined as a concentration of tested compound that leads to a reduction in cell pool viability by 50% compared to the negative control (accepted as 100%). % cell viability=Absorbance value of treated cells−Absorbance value of blank/(Absorbance value of untreated cells−Absorbance value of blank)×100%

BxPC-3 cells = test: MTT assay, BxPC-3; type: cell-based; conditions: Homo sapiens
Description: as §1, §2, §3

[1] = MTT cell viability, WI-38 normal fibroblasts; type: cell-based; conditions: human, read-out: % cell viability ± SD; for viability at 72 h: WI-38, 72 h; for viability at 24 h: WI-38, 24 h
Method: as §2, §3

solubility (remark) = type: physicochemical
[2] = HT-29, 24-h MTT, independent experiment 1, read-out: IC50(1)
[3] = HT-29, 24-h MTT, independent experiment 2, read-out: IC50(2)
[4] = HT-29, 24-h MTT, read-out: Mean IC50 ± SD
[5] = HT-29, 72-h MTT, independent experiment 1, read-out: IC50(1)
[6] = HT-29, 72-h MTT, independent experiment 2, read-out: IC50(2)
[7] = HT-29, 72-h MTT, read-out: Mean IC50 ± SD
[8] = BxPC-3, 24-h MTT, independent experiment 1, read-out: IC50(1)
[9] = BxPC-3, 24-h MTT, independent experiment 2, read-out: IC50(2)
[10] = BxPC-3, 24-h MTT, read-out: Mean IC50 ± SD
[11] = BxPC-3, 72-h MTT, independent experiment 1, read-out: IC50(1)
[12] = BxPC-3, 72-h MTT, independent experiment 2, read-out: IC50(2)
[13] = BxPC-3, 72-h MTT, read-out: Mean IC50 ± SD
[14] = WI-38 normal fibroblast cells, compound at IC50 concentration obtained for HT-29 cells
[15] = compound at IC50 concentration estimated for BxPC-3 cells
[16] = compound at IC50 concentration obtained for HT-29 cells
[17] = HT-29, 24 h, read-out: Mean IC50 ± SD
[18] = HT-29, 72 h, read-out: Mean IC50 ± SD
[19] = BXPC-3, 24 h, read-out: IC50(1)
[20] = BXPC-3, 24 h, read-out: IC50(2)
[21] = BXPC-3, 24 h, read-out: Mean IC50 ± SD
[22] = BXPC-3, 72 h, read-out: IC50(1)
[23] = BXPC-3, 72 h, read-out: IC50(2)
[24] = BXPC-3, 72 h, read-out: Mean IC50 ± SD
[25] = WI-38 normal fibroblast cells, compound at IC50 concentration estimated for BxPC-3 cells

Structure (SMILES)	IC50 (HT-29 cells; [2]) [µM]	IC50 (HT-29 cells; [3]) [µM]	IC50 (HT-29 cells; [4]) [µM]	IC50 (HT-29 cells; [5]) [µM]	IC50 (HT-29 cells; [6]) [µM]	IC50 (HT-29 cells; [7]) [µM]	IC50 (BxPC-3 cells; [8]) [µM]	IC50 (BxPC-3 cells; [9]) [µM]	IC50 (BxPC-3 cells; [10]) [µM]	IC50 (BxPC-3 cells; [11]) [µM]	IC50 (BxPC-3 cells; [12]) [µM]	IC50 (BxPC-3 cells; [13]) [µM]	also measured
COC(=O)[C@@H](N[C@@H](c1ccccc1)c1c(O)ccc2ccccc12)C(C)C (mixture of isomers) [MMZ-33D, (S,S) and (R,R)-methyl ((2-hydroxynaphthalen-1-yl)(phenyl)methyl)-D-valinate]	60.4	61.9	61.1 ± 1.02	32.3	43.4	37.9 ± 7.86	47.8	50.8	49.3 ± 2.09	50	28.7	39.4 ± 15.1	
COC(=O)[C@@H](N[C@@H](c1ccc(Cl)cc1)c1c(O)ccc2ccccc12)C(C)C (mixture of isomers) [MMZ-39AA, (S,S) and (R,R)-methyl ((4-chlorophenyl)(2-hydroxynaphthalen-1-yl)methyl)-D-valinate]	62.1	64	63.1 ± 1.36	50.6	65.6	58.1	61.4	60.3	60.8 ± 0.8	44.8	41.6	43.2 ± 2.26	viability at 72 h [1, 14]: 64 ± 4.9%
COC(=O)[C@H](Cc1ccccc1)N[C@H](c1ccccc1)c1c(O)ccc2ccccc12 (mixture of isomers) [MMZ-45B, (S,R) and (R,S)-methyl ((2-hydroxynaphthalen-1-yl)(phenyl)methyl)-L-phenylalaninate]													viability at 24 h [1, 15]: 91.73 ± 0.87%; viability at 72 h [1, 15]: 86.7 ± 8.14%; viability at 72 h [1, 16]: 88.2 ± 1.6%; IC50 (HT-29 cells; HT-29, 24 h, read-out: IC50(1)): 29 µM; IC50 (HT-29 cells; HT-29, 24 h, read-out: IC50(2)): 34.6 µM; IC50 (HT-29 cells; [17]): 31.8 ± 3.93 µM; IC50 (HT-29 cells; HT-29, 72 h, read-out: IC50(1)): 29.6 µM; IC50 (HT-29 cells; HT-29, 72 h, read-out: IC50(2)): 38.7 µM; IC50 (HT-29 cells; [18]): 34.1 ± 6.39 µM; IC50 (BxPC-3 cells; [19]): 58.5 µM; IC50 (BxPC-3 cells; [20]): 40.5 µM; IC50 (BxPC-3 cells; [21]): 49.3 ± 13 µM; IC50 (BxPC-3 cells; [22]): 35.6 µM; IC50 (BxPC-3 cells; [23]): 24.7 µM; IC50 (BxPC-3 cells; [24]): 30.1 ± 7.73 µM
COC(=O)C[C@H](N[C@@H](c1ccccc1)c1c(O)ccc2ccccc12)C(=O)OC (mixture of isomers) [MMZ-147B, (S,S) and (R,R)-dimethyl ((2-hydroxynaphthalen-1-yl)(phenyl)methyl)-L-aspartate]	44.2	46.8	45.5 ± 1.77	12.2	17.6	14.9 ± 3.8	44.8	59.7		69.8	39.3	54.6	viability at 24 h [1, 25]: 69.94 ± 0.21%; viability at 72 h [1, 25]: 72.5 ± 4.37%; viability at 72 h [1, 14]: 86.8 ± 5%
COC(=O)C[C@H](N[C@H](c1ccccc1)c1c(O)ccc2ccccc12)C(=O)OC (mixture of isomers) [MMZ-147CE, (S,R) and (R,S)-dimethyl ((2-hydroxynaphthalen-1-yl)(phenyl)methyl)-L-aspartate]													viability at 24 h [1, 15]: 82.5 ± 1.8%; viability at 72 h [1, 16]: 66.9 ± 1.08%; IC50 (HT-29 cells; HT-29, 24 h, read-out: IC50(1)): 113 µM; IC50 (HT-29 cells; HT-29, 24 h, read-out: IC50(2)): 110 µM; IC50 (HT-29 cells; [17]): 112 ± 2.12 µM; IC50 (HT-29 cells; HT-29, 72 h, read-out: IC50(1)): 37.1 µM; IC50 (HT-29 cells; HT-29, 72 h, read-out: IC50(2)): 46.1 µM; IC50 (HT-29 cells; [18]): 41.6 ± 6.32 µM; IC50 (BxPC-3 cells; [19]): 54.1 µM; IC50 (BxPC-3 cells; [20]): 41 µM; IC50 (BxPC-3 cells; [21]): 47.5 ± 9.26 µM; IC50 (BxPC-3 cells; [22]): 59.6 µM; IC50 (BxPC-3 cells; [23]): 34.1 µM; IC50 (BxPC-3 cells; [24]): 46.8 ± 18 µM
COC(=O)CC[C@H](N[C@@H](c1ccccc1)c1c(O)ccc2ccccc12)C(=O)OC (mixture of isomers) [MMZ-148B, (S,S) and (R,R)-dimethyl ((2-hydroxynaphthalen-1-yl)(phenyl)methyl)-L-glutamate]													solubility (solubility (remark)): poor solubility
COC(=O)CC[C@H](N[C@H](c1ccccc1)c1c(O)ccc2ccccc12)C(=O)OC (mixture of isomers) [MMZ-148C, (S,R) and (R,S)-dimethyl ((2-hydroxynaphthalen-1-yl)(phenyl)methyl)-L-glutamate]													solubility (solubility (remark)): poor solubility
COC(=O)[C@H](CC(C)C)N[C@@H](c1ccccc1)c1c(O)ccc2ccccc12 (mixture of isomers) [MMZ-167C, (S,S) and (R,R)-methyl ((2-hydroxynaphthalen-1-yl)(phenyl)methyl)-L-leucinate]	47.7	50		27.8	28.4	28.1 ± 0.375	71.4	61	66.2 ± 7.36	32.9	31.2	32.1 ± 1.15	viability at 24 h [1, 25]: 76.8 ± 1.8%; viability at 24 h [1, 14]: 82.19 ± 0.69%
O=c1[nH]cc(F)c(=O)[nH]1 [5-Fluorouracil, reference compound]	48.8	55.7	52.3 ± 4.9	5.16	3.6	4.38 ± 1.1	49.4	28.6	39 ± 14.7	14.8	12.1	13.4 ± 1.9	

Source: publication PMC10609152, “Synthesis, Computational, and Anticancer In Vitro Investigations of Aminobenzylnaphthols Derived from 2-Naphtol, Benzaldehydes, and α-Aminoacids via the Betti Reaction” (Molecules, 2023)
